Experimental data from patent US9187480B2, “Peripherally restricted diphenyl purine derivatives” (RESEARCH TRIANGLE INSTITUTE, priority 2012, dated 2015).

Experiments:
MDCK-MDR = MDCK-MDR transport (apical to basal); assay type: in vitro ADME
CB1 [1] = target: T1, CB1 (Homo sapiens (Human), UniProt P21554); assay: Radioligand displacement of [3H]SR141716 at CB1; assay type: binding; details: radioligand [3H]SR141716; read-out: Ki (nM) v. [3H]SR141716 at CB1
CB1 [2] = target: T1, CB1; assay: Displacement of [3H]CP55940 in membranes of CHO-K1 cells over-expressing CB1;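 on all read-outs here: reported values are averages of 3-6 independent measurements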; details: for Binding Selectivity using CP55940 Displacement: CB1 versus CB2; for Ki: read-out: Ki (nM) v. [3H]CP55940 at CB1, radioligand [3H]CP55940, CHO-K1 membranes
Description: Further characterization of select compounds was performed using radioligand displacement of [3H]1 and equilibrium dissociation constant (Ki) values were determined. Selectivity of these compounds at CB1 versus CB2 was also determined by obtaining Ki values at either receptor using displacement of [3H]CP55940 in membranes of CHO-K1 cells over-expressing either receptor. Data reported are average values from 3-6 measurements.
Selectivity against the CB2 receptor was determined by comparing the compound displacement of radiolabeled CP55940, which is a cannabinoid known to act as a full agonist at both CB1 and CB2 receptors.

CB2 = CB2 (Homo sapiens (Human), UniProt P34972); assay: Displacement of [3H]CP55940 in membranes of CHO-K1 cells over-expressing CB2; assay type: binding; details: radioligand [3H]CP55940, CHO-K1 membranes; read-out: Ki (nM) v. [3H]CP55940 at CB2
CB1 [3] = target: T1, CB1; assay: CB1 activated Gαq16-coupled intracellular calcium mobilization assay in CHO-K1 cells; assay type: cell-based; details: apparent affinity (Ke)
[4] = Brain penetration / plasma and brain levels after oral dosing in SD rats; assay type: in vivo, Sprague-Dawley (SD) rats; details: Sprague-Dawley, rat, oral 10 mg/kg
Description: However, unlike otenabant, this sulfonamide is a peripherally selective compound. […] Select compounds were chosen for study to determine penetration into the CNS. Selected compounds were dosed orally at 10 mg/kg in SD rats. Brain and plasma samples were collected at 1, 2, 4, and 24 hours post dose and samples were analyzed by MS (Table 2, below). Since unperfused brains were used and the blood volume in unperfused brains is approximately 4%, a brain to plasma level of ≦0.04 represents no discernible penetration into the CNS.

Sequence of CB2 (P34972 whole entry): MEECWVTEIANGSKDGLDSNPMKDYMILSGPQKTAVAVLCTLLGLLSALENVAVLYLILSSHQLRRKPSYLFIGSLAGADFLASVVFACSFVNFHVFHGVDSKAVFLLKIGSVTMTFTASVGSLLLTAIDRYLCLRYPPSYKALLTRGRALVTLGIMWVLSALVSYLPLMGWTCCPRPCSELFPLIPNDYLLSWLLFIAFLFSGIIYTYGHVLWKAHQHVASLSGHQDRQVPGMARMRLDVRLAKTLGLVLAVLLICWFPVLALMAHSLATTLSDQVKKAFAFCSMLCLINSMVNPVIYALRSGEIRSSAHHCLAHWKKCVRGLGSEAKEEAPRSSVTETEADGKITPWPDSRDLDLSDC
T1 sequence (P21554 whole entry): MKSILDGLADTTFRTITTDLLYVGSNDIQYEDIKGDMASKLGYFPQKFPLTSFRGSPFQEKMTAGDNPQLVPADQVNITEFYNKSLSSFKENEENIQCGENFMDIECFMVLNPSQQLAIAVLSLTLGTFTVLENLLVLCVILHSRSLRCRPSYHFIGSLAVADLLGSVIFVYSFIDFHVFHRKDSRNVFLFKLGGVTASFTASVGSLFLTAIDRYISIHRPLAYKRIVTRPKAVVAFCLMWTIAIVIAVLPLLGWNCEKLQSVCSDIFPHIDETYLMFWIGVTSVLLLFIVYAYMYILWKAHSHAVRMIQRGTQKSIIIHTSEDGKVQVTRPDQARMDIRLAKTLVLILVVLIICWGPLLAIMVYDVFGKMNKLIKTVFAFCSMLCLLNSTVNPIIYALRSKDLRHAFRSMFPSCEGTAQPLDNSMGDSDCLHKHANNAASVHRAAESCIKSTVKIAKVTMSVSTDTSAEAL

Kp ([4]; brain and plasma, range over sampling times, read-out: brain to plasma ratios) | Cmax ([4]; in vivo) [ng/g] | Compound | % MDCK-MDR transport (Apical to Basal) (MDCK-MDR) [%] | Ki (CB1 [1]) [nM] | Binding Selectivity using CP55940 Displacement (CB1 [2]) | Ki (CB1 [2]) [nM] | Ki (CB2) [nM] | Ke (nM) at CB1 (CB1 [3]) [nM]
– | – | CS(=O)(=O)NCC1CCC(CNc2ncnc3c2nc(-c2ccccc2Cl)n3-c2ccc(Cl)cc2)CC1 (stereo not shown) | >50 | 44.5 | 8.6 | 258 | 2230 | 201.00
– | – | NS(=O)(=O)NCC1CCC(CNc2ncnc3c2nc(-c2ccccc2Cl)n3-c2ccc(Cl)cc2)CC1 (stereo not shown) | – | 94.5 | 30.2 | 355 | 10700 | 549.0
0.05 to 0.11 | 1650 | CS(=O)(=O)NC1(c2ccccc2)CCN(c2ncnc3c2nc(-c2ccccc2Cl)n3-c2ccc(Cl)cc2)CC1 [N-{1-[8-(2-Chlorophenyl)-9-(4-chlorophenyl)-9H-purin-6-yl]-4-phenylpiperidin-4-yl}methanesulfonamide] | <1 | – | 153 | 6.21 | 948 | –
– | – | NC(=O)C1(c2ccccc2)CCN(c2ncnc3c2nc(-c2ccccc2Cl)n3-c2ccc(Cl)cc2)CC1 | 5.6 ± 2.4 | 0.28 | 3076.5 | 1.79 | 5510 | 9
– | – | O=S1(=O)CCN(c2ncnc3c2nc(-c2ccccc2Cl)n3-c2ccc(Cl)cc2)CC1 [4-[8-(2-Chlorophenyl)-9-(4-chlorophenyl)-9H-purin-6-yl]-1λ^6,4-thiomorpholine-1,1-dione] | – | 16.8 | 26.0 | 32.1 | 834 | 159.00
